# Assay results published in US12559784B2 (priority 2023, dated 2026).
# Several values for one entry are separate records, joined by “and”; a condition that tells them apart may be missing. Identical values can stand only once. Like-named read-outs stand apart in the source and are kept apart here.
# How the values were obtained:
# phosphatase = assay type: biochemical, porcine; conditions: for percent of phosphatase measured (optical density compared to the naïve condition), average: average of two readings; for percent of phosphatase measured (optical density compared to the naïve condition): single readings
# Description: Our next studies involved applying the test substance (500 μL) directly to the epidermis side of previously frozen porcine skin (Spear Products, Coopersburg, PA) that is placed in a holder that only exposes the epidermis side for 30 minutes, adding phosphate buffered saline (PBS) with added sodium azide (metabolic inhibitor that ensure no viable tissue), then aliquoting into cuvettes to read at an optical density of 300 nm. […] So, at the end of the initial studies described above, almost out of frustration, we tried to probe for released phosphatase activity using p-Nitrophenyl phosphate disodium salt (PNPP; Sigma Aldrich, St. Louis, MO) substrate solution to detect any presence of phosphatase.
# Preparation • 1. Thaw 2 pieces of frozen porcine skin • a. Punch out as many skin discs and mount in holders • 2. Label cuvettes (3 for each chemical) Procedure • 1. Add 500 μL of test chemical to holder; incubate at room temperate for 30 minutes • 2. After 30 minutes, add 2 mL of PBS-Azide to both the holder containing the test chemical; forcefully pipette and re-pipette 10 times • 3. From the holder, aliquot 400 μL into 3 cuvettes; forcefully pipette and re-pipette 3 times before dispensing into cuvettes Reading Results • 1. Measure at OD300 for all cuvettes
# Skin corrosion by GHS Category 1 dermal corrosive chemicals results in the disintegration of the epidermis into the dermis.
# skin = conditions: cited from earlier work
# alkaline phosphatase [1] = assay type: biochemical
# Description: New stocks were made the of the 1:100 alkaline phosphatase reaction reagents.
# The conditions included: 1:100 dilution of alkaline phosphatase reaction reagent with two solvents (buffered saline and ethanol), dosing in 0.5 mL microcentrifuge tubes with 20 μL of chemical added to 180 μL of reaction reagent, and incubating with p-Nitrophenyl phosphate disodium salt (PNPP) substrate for 1-hour.
# porcine skin = test system: porcine skin
# Description: Our initial studies involved using fresh and frozen porcine skin “buttons”. These buttons were punched out of porcine skin (Spear Products, Cooopersburg, PA) using a […] biopsy punch tool. Three different kinds of skin buttons were prepared from fresh porcine skin, frozen porcine skin, and frozen porcine skin with the fatty layer removed. […] The next day, the tubes were taken out and vortexed and 500 μL of the solution was aliquoted into cuvettes to read at three different optical density wavelengths (OD190, OD290, OD300) to evaluate the best response.
# Skin Preparation • 1. Thaw 2 pieces of frozen porcine skin • 2. Punch out buttons: 24 buttons in each tube filled with 40 mL PB S-Azide 96-well plate Preparation • 1. Plate layout for dosing:
# Procedure • 1. Dose each tissue with 140 μL of test chemical • 2. […] Take out of incubator and vortex pulse 3× • 2. Aliquot 500 μL to cuvette and read results at OD190, OD290, and OD300
# There were three readings done at an optical density of 190, 290, and 300 nm to evaluate the best response. […] To address the variable exposure conditions, our next studies involved placing a larger porcine skin section into a holder that exposes only the epidermis side with no potential for test chemical exposure from the backside or through the sides.
# alkaline phosphatase [2] = assay: Alkaline phosphatase experiment, third week: with and without discs; assay type: biochemical
# From the text: Our next study focused on an in vitro method of detecting the potential of dermal corrosives to inhibit nonspecific phosphatases that may be released from the skin. We decided to test pure […] instead of relying on endogenous skin phosphatase. Alkaline phosphatase (Sigma Aldrich, St. Louis, MO) was purchased and suspended to make the reaction reagent (10,000 units). […] We note that the ratio used was 0.1 g/ml or 10% chemical—which is far in excess of any pharmaceutical applications. We further note that pharmaceutical enzyme inhibition tests, studies an use involve highly specific active site binding and these assays are conducted at ratios of micrograms-femtograms per ml. These studies are done at these ranges because these are the realistic concentrations for drug applications and therapeutics. […] So when a 50 Kg human consumes the tables, the tissues will be exposed at a 5 mg/50 kg=0.1 mg/kg=0.0000001 g/ml.
# Next two quantitative methods were evaluated: 1) using the discs parts from our OptiSafe™ test method and 2) directly into the 24-well plate.
# Preparation • 1. Alkaline phosphatase reaction reagent • a. Take 1 vial of AP, add 1 mL of PBS, mix by pipette/re-pipette 10 times • b. To a 50 mL conical tube, add 1 mL of the AP solution prepared above and 40 mL of PBS • 2. Prepare two 24-well plates (1 with discs, 1 without discs) • 3. […] Aliquot 200 μL PNPP and PBS Procedure • 1. Plate 1 (No Discs) • a. Add 1.25 mL from the prepared PBS-AP conical tube to each well (11 wells) • b. Add 100 μL of the test material to the well, mix with the same pipette tip, dispose and repeat for the rest of the test materials • c. Wrap the plate in saran wrap and place into the container • 2. Plate 2 (Discs) • a. Configure the 11 discs in the plate so the plate cover is stable • b. Add 1.25 mL from the prepared PBS-AP conical tube to each well (11 wells) • c. Add 100 μL of the test material to the center of the disc and repeat for the rest of the test materials • d. Put the plate cover on and place into the container • 3. […] Incubate for 1 hour Reading Results • 1. Measure at OD405
# alkaline phosphatase [3] = assay type: biochemical; conditions: 3-hour exposure; 10 μL into 90 μL
# [4] = skin, chemical lists of the experiments
# [5] = fresh porcine skin, 140 μL test chemical, R 1 and 2, >3A = outside readable range
# [6] = frozen porcine skin with fat layer removed, R 1 and 2
SMILES,"percent of phosphatase measured (optical density compared to the naïve condition), average (phosphatase) [%]",percent of phosphatase measured (optical density compared to the naïve condition) (phosphatase),A2 - Results AVG (alkaline phosphatase [1]),A2 - Results R1 (alkaline phosphatase [1]),A2 - Results R3 (alkaline phosphatase [1]),also measured
OCCOCCOCCO [Triethylene glycol],28.9,29.5% and 28.2%,–,–,–,"Corrosive (skin; rabbit, in vivo): No"
CC(C)O [Isopropanol],–,–,2.528,2.294,2.389,–
CCCCCBr [1-Bromopentane],–,–,2.686,2.590,2.598,in vivo GHS (skin; [4]): Cat. 2
NCCO [Ethanolamine],19.9,20.1% and 19.6%,–,–,–,"OD190 (porcine skin; [5]): >3A; OD290 (porcine skin; fresh porcine skin, R 1 and 2): 0.848 and 1.169; OD300 (porcine skin; fresh porcine skin, R 1 and 2): 0.711 and 1.044; OD190 (porcine skin; [6]): 0.761 and 0.800; OD290 (porcine skin; [6]): 0.168 and 0.093; OD290 (porcine skin; frozen porcine skin, R 1 and 2): 0.708 and 0.767; OD300 (porcine skin; frozen porcine skin, R 1 and 2): 0.524 and 0.598; raw optical density reading (PNPP), with discs (FIG. 3A) (alkaline phosphatase [2]): 0.170 and 0.166 and 0.172; raw optical density reading (PNPP), without discs (FIG. 3B) (alkaline phosphatase [2]): 0.174 and 0.185 and 0.175; Corrosive (skin; rabbit, in vivo): Yes"
CC(C)=CCC/C(C)=C/CO,–,–,1.894,1.876,1.956,in vivo GHS (skin; [4]): Cat. 2
CCCCCCCCCCCCCC(=O)OC(C)C [Isopropyl Myristate],–,–,3.339,3.413,3.360,–
CC(C=O)Cc1ccc(C(C)C)cc1 (stereo not shown) [Cyclamen aldehyde],100.0,100.0%,2.777,2.736,2.845,"OD290 (porcine skin; fresh porcine skin, R 1 and 2): 0.290; Corrosive (skin; Yes/No): No; in vivo GHS (skin; [4]): Cat. 2"
"C=CCCC=C [1,5-Hexadiene]",–,–,2.717,2.692,2.693,"OD405 reading, ethanol solvent, 10 μL dose, 1-hour PNPP (FIG. 7B) (alkaline phosphatase [3]): 2.947; OD405 reading, ethanol solvent, 10 μL dose, 30-minute PNPP (FIG. 7A) (alkaline phosphatase [3]): 1.702"
CC(C)(O)CCc1ccccc1 [2-Methyl-4-phenyl-2-butanol],99.3,98.6% and 100.0%,–,–,–,"OD290 (porcine skin; fresh porcine skin, R 1 and 2): 0.339 and 0.426; OD300 (porcine skin; fresh porcine skin, R 1 and 2): 0.272 and 0.371; OD190 (porcine skin; [6]): 0.215 and 0.322; OD290 (porcine skin; [6]): 0.079 and 0.094; OD300 (porcine skin; [6]): 0.026 and 0.052; OD190 (porcine skin; frozen porcine skin, R 1 and 2): 0.338 and 0.362; OD290 (porcine skin; frozen porcine skin, R 1 and 2): 0.496 and 0.637; OD300 (porcine skin; frozen porcine skin, R 1 and 2): 0.342 and 0.497; Corrosive (skin; Yes/No): No"
CC/C=C\CC1=C(C)CCC1=O,–,–,2.527,2.405,2.704,"in vivo GHS (skin; rabbit, in vivo): Cat. 2"
CCCSSCCC [di-n-Propyl disulfide],69.9,68.1% and 71.6%,2.472,2.649,2.368,"OD190 (porcine skin; [5]): 0.419 and 0.400; OD290 (porcine skin; fresh porcine skin, R 1 and 2): 0.139 and 0.137; OD300 (porcine skin; fresh porcine skin, R 1 and 2): 0.105 and 0.096; OD190 (porcine skin; [6]): 0.443 and 0.405; OD290 (porcine skin; [6]): 0.082 and 0.063; OD300 (porcine skin; [6]): 0.031 and 0.018; OD190 (porcine skin; frozen porcine skin, R 1 and 2): 0.314 and 0.396; OD290 (porcine skin; frozen porcine skin, R 1 and 2): 0.294 and 0.240; OD300 (porcine skin; frozen porcine skin, R 1 and 2): 0.161 and 0.119; Corrosive (skin; Yes/No): No; in vivo GHS (skin; [4]): Cat. 2"
CC1=CCC(C(C)(C)O)CC1 (stereo not drawn) [alpha-Terpineol],–,–,2.589,2.223,2.793,"in vivo GHS (skin; rabbit, in vivo): Cat. 2"
CC(=O)O [Acetic acid],18.9,19.1% and 18.6%,0.850,0.996,0.829,"OD190 (porcine skin; pig): >3A; raw optical density reading (PNPP), with discs (FIG. 3A) (alkaline phosphatase [2]; 405 nm, 100 μL chemical, 1.25 mL reaction reagent (10,000 units), 18 hours 37° C., PNPP 1 hour): 0.106 and 0.102 and 0.103; raw optical density reading (PNPP), without discs (FIG. 3B) (alkaline phosphatase [2]; 405 nm, 100 μL chemical, 1.25 mL reaction reagent, 18 hours 37° C., PNPP 1 hour): 0.104 and 0.129 and 0.101; A1 - Results AVG (alkaline phosphatase [1]): 0.096; A1 - Results R1 (alkaline phosphatase [1]): 0.096; A1 - Results R3 (alkaline phosphatase [1]): 0.096; Corrosive (skin; rabbit, in vivo): Yes"
CCCCCCCCCCO [1-Decanol],–,–,2.373,2.205,2.472,"in vivo GHS (skin; rabbit, in vivo): Cat. 2"
"C=C(C)[C@@H]1CC=C(CO)CC1 [p-Metha-1,8-dien-7-ol]",–,–,2.793,2.757,2.868,in vivo GHS (skin; [4]): Cat. 2
O=C(OCc1ccccc1)c1ccccc1O [Benzyl Salicylate],–,–,3.317,3.345,3.333,–
CC(C)(C)c1ccccc1O [2-tert-Butylphenol],–,–,2.615,2.829,2.448,–
OCCc1ccccc1 [Phenylethyl alcohol],–,–,3.303,3.342,3.287,–
CCCCCCCCC=O [Nonyl aldehyde],–,–,2.227,2.496,2.117,"OD405 reading, ethanol solvent, 10 μL dose, 1-hour PNPP (FIG. 7B) (alkaline phosphatase [3]): 3.078; OD405 reading, ethanol solvent, 10 μL dose, 30-minute PNPP (FIG. 7A) (alkaline phosphatase [3]): 1.589; in vivo GHS (skin; [4]): Cat. 2"
BrCCc1ccccc1 [(2-Bromoethyl)benzene],100.0,100.0%,–,–,–,"OD290 (porcine skin; fresh porcine skin, R 1 and 2): 0.125 and 0.133; OD300 (porcine skin; fresh porcine skin, R 1 and 2): 0.080 and 0.094; OD190 (porcine skin; [6]): 0.131 and 0.144; OD290 (porcine skin; [6]): 0.071; OD300 (porcine skin; [6]): 0.030 and 0.034; OD290 (porcine skin; frozen porcine skin, R 1 and 2): 0.279 and 0.254; OD300 (porcine skin; frozen porcine skin, R 1 and 2): 0.137 and 0.128"
CC(=O)OCc1ccccc1 [Benzyl Acetate],–,–,3.385,3.42,3.484,–
CC(CC=O)CCCC(C)(C)O (stereo not shown) [Hydroxycitronellal],–,–,2.585,2.513,3.089,–
